Among the data in patent US12162867B2, “Inhibitors of RNA helicase DHX9 and uses thereof” (ACCENT THERAPEUTICS, INC., priority 2022, dated 2024) are EC50 values, retold here.

Molecules are shown by their SMILES. Bounds are passed on as bounds.

One test relates to circBRIP1 in HCT116 cells. Description: DHX9 circBRIP1 cellular target engagement SYBR Green assay (qPCR). The format is cell-based. The following applies: Homo sapiens, HCT-116, circBRIP1, HCT116 cells; SyBr assay (marked ^+); read-out: DHX9 Cellular Target Engagement EC50. For orientation: In qPCR the cycle at which signal appears reflects the starting amount.
As a reminder, the EC50 is the concentration giving half of the maximal effect. Consider `CS(=O)(=O)Nc1cc(Cl)cc(NC(=O)c2cnn(-c3ncccc3OCc3c[nH]cn3)c2)c1` [Example 254], for which the 50% effective concentration (EC50) amounted to 578 nM.
`CS(=O)(=O)Nc1cc(Cl)cc(NC(=O)c2cnn(-c3ncccc3-c3cncnc3)c2)c1` [Example 387]: the EC50 was above 10000 nM.
On the same count and under the same terms, to `CCS(=O)(=O)Nc1cc(F)cc(NC(=O)c2cc(-c3ccccc3)cs2)c1` [Example 74] belongs 8320 nM; to `CS(=O)(=O)Nc1cc(Cl)cc(NC(=O)c2cnn(C3CCOCC3)c2)c1` [Example 131, N-(3-chloro-5-(methylsulfonamido)phenyl)-1-(tetrahydro-2H-pyran-4-yl)-1H-pyrazole-4-carboxamide], above 10000 nM.
Consider `CS(=O)(=O)Nc1cc(Cl)cc(NC(=O)c2cnn(C3CCCC3)c2)c1` [Example 309], for which the EC50 worked out at 3730 nM.
Still for that read-out and setting: to `Cc1cc(C(=O)Nc2cc(Cl)cc(NS(C)(=O)=O)c2)cn1-c1ncc(F)cn1` [Example 207] belongs 508 nM; to `Cc1ccc2sc(C(=O)Nc3cc(Cl)cc(NS(C)(=O)=O)c3)cc2c1` [Example 331], 3750 nM.
On the same count and under the same terms, the value for `CS(=O)(=O)Nc1cc(Cl)cc(NC(=O)c2cc3c(Cl)cccc3s2)c1` [Example 332] was 3340 nM; that for `Cc1cc(C(=O)Nc2cc(Cl)cc(NS(C)(=O)=O)c2)cn1-c1ncc(N2CCOCC2)cc1F` [Example 320] was 96.1 nM; that for `CS(=O)(=O)Nc1cc(Cl)cc(NC(=O)c2cnn(-c3ccccc3Oc3cccc(F)c3)c2)c1` [Example 265] was 4650 nM.
On the same count and under the same terms, to `CS(=O)(=O)Nc1cc(Cl)cc(NC(=O)c2cnn(-c3ncccc3COc3cncc(F)c3)c2)c1` [Example 262] belongs 439 nM; to `CN1CCN(c2cnc(-n3cc(C(=O)Nc4cc(Cl)cc(NS(C)(=O)=O)c4)cn3)nc2)CC1=O` [Example 183], above 10000 nM.
In the case of `Cc1cccnc1-n1cc(C(=O)Nc2cc(Br)cc(NS(C)(=O)=O)c2)cc1C` [Example 45], the half-maximal effective concentration (EC50) turned out to be 563 nM.
`CS(=O)(=O)Nc1cc(Cl)cc(NC(=O)c2cnn(-c3ncccc3OCc3nccs3)c2)c1` [Example 205]: the EC50 worked out at 841 nM.
Still for that read-out and setting: the value for `CS(=O)(=O)Nc1cc(Cl)cc(NC(=O)c2cc(-c3ncc(F)cn3)cs2)c1` [Example 338] was 126 nM.
Same read-out and setting: to `CS(=O)(=O)Nc1cc(Cl)cc(NC(=O)c2cc3c(F)c(F)ccc3s2)c1` [Example 324] belongs 5900 nM; to `CS(=O)(=O)Nc1cc(Cl)cc(NC(=O)c2cc(C3CCNCC3)cs2)c1` [Example 243], above 10000 nM; to `CS(=O)(=O)Nc1cc(F)cc(NC(=O)c2c[nH]c(Br)c2)c1` [Example 2], above 30000 nM.
On to `CS(=O)(=O)Nc1cc(Cl)cc(NC(=O)c2cnn([C@@H]3CC[C@H]3O)c2)c1` (single isomer, unassigned) [Example 306a], for which the half-maximal effective concentration (EC50) was above 10000 nM.
Same read-out and setting: to `CS(=O)(=O)Nc1cc(Cl)cc(NC(=O)c2cc3ccc(F)cc3s2)c1` [Example 294] belongs above 10000 nM; to `CS(=N)(=O)Nc1cc(Br)cc(NC(=O)c2cc(-c3ccccn3)cs2)c1` (centres unmarked) [Example 121, N-(3-bromo-5-(methylsulfonoamidimidamido)phenyl)-4-(pyridin-2-yl)thiophene-2-carboxamide], 5430 nM.
On the same count and under the same terms, the value for `CS(=O)(=O)Nc1cc(Br)cc(NC(=O)c2cnn(-c3cccc(C#N)c3)c2)c1` [Example 52] was 3010 nM; that for `CS(=O)(=O)Nc1cc(Cl)cc(NC(=O)c2cc3ccncc3s2)c1` [Example 230] was 7250 nM; that for `CS(=O)(=O)Nc1cc(Cl)cc(NC(=O)c2cc(C(=O)Nc3ccccc3)cs2)c1` [Example 166, N2-(3-chloro-5-(methylsulfonamido)phenyl)-N4-phenylthiophene-2,4-dicarboxamide] was 2390 nM.
The same measure, in the same setting: the value for `CC(=O)N1CCN(c2ccnc(-n3cc(C(=O)Nc4cc(Cl)cc(NS(C)(=O)=O)c4)cn3)c2)CC1` [Example 148, 1-[4-(4-acetylpiperazin-1-yl)pyridin-2-yl]-N-(3-chloro-5-methanesulfonamidophenyl)-1H-pyrazole-4-carboxamide] was 4340 nM.
With `CC(=O)N1CCN(c2ccc(-n3cc(C(=O)Nc4cc(Br)cc(NS(C)(=O)=O)c4)cn3)nc2)CC1` [Example 86, 1-(5-(4-acetylpiperazin-1-yl)pyridin-2-yl)-N-(3-bromo-5-(methylsulfonamido)phenyl)-1H-pyrazole-4-carboxamide], the half-maximal effective concentration (EC50) is 585 nM.
Same read-out and setting: to `CS(=O)(=O)Nc1cc(Br)cc(NC(=O)c2cnn(-c3ccccc3CO)c2)c1` [Example 161, N-(3-bromo-5-(methylsulfonamido)phenyl)-1-(2-(hydroxymethyl)phenyl)-1H-pyrazole-4-carboxamide] belongs 1420 nM; to `CS(=O)(=O)Nc1cc(Cl)cc(NC(=O)c2cnn(-c3ncccc3C(F)(F)F)c2)c1` [Example 47], 6730 nM.
On the same count and under the same terms, to `CS(=O)(=O)Nc1cc(Br)cc(NC(=O)c2cnn(C3CCCCC3)c2)c1` [Example 48] belongs 1410 nM; to `CN1CCC(n2cc(C(=O)Nc3cc(Cl)cc(NS(C)(=O)=O)c3)cn2)CC1=O` (centres unmarked) [Example 307], above 10000 nM.
Same read-out and setting: the value for `CS(=O)(=O)Nc1cc(Cl)cc(NC(=O)c2cnn(-c3ccc(N4CCn5ccnc5C4)cn3)c2)c1` [Example 192] was 3600 nM; that for `Cc1ccc2cc(C(=O)Nc3cc(Cl)cc(NS(C)(=O)=O)c3)cn2c1` [Example 300] was 3940 nM.
Take `CN1CC2(CC(n3cc(C(=O)Nc4cc(Cl)cc(NS(C)(=O)=O)c4)cn3)C2)C1` [Example 311]: the 50% effective concentration (EC50) came out at 3980 nM.
`CS(=O)(=O)Nc1cc(Cl)cc(NC(=O)c2cnn(-c3ncccc3OCc3ccccc3F)c2)c1` [Example 189]: the concentration for a half-maximal effect (EC50) stood at 308 nM.
The same measure, in the same setting: the value for `CS(=O)(=O)Nc1cc(Cl)cc(NC(=O)c2cnn(-c3ncccc3OCc3ccccc3)c2)c1` [Example 68] was 278 nM; that for `CS(=O)(=O)Nc1cc(Cl)cc(NC(=O)c2cc(-c3cccnc3)cs2)c1` [Example 116, N-(3-chloro-5-(methylsulfonamido)phenyl)-4-(pyridin-3-yl)thiophene-2-carboxamide] was 734 nM.
On the same count and under the same terms, to `CS(=O)(=O)Nc1cc(Cl)cc(NC(=O)c2cc(-c3cccc(F)c3)cs2)c1` [Example 108] belongs 6650 nM; to `CP(C)(=O)c1cccnc1-n1cc(C(=O)Nc2cc(Cl)cc(NS(C)(=O)=O)c2)cn1` [Example 201], above 10000 nM.
Still for that read-out and setting: the value for `Cc1cc(C)c2cc(C(=O)Nc3cc(Cl)cc(NS(C)(=O)=O)c3)cn2c1` [Example 328] was 2670 nM; that for `CN1CCC(c2ccc(-n3cc(C(=O)Nc4cc(Cl)cc(NS(C)(=O)=O)c4)cn3)nc2)CC1=O` (centres unmarked) [Example 266] was 1160 nM.
`CS(=O)(=O)Nc1cc(Br)cc(NC(=O)c2cnn(-c3ccc(C(F)(F)F)cn3)c2)c1` [Example 43]: the concentration giving a half-maximal response (EC50) is 4710 nM.
Still for that read-out and setting: the value for `CS(=O)(=O)Nc1cc(Cl)cc(NC(=O)c2csc(-c3ccccc3)c2)c1` [Example 124, N-(3-chloro-5-(methylsulfonamido)phenyl)-5-phenylthiophene-3-carboxamide] was 5140 nM.
`CS(=O)(=O)Nc1cc(Cl)cc(NC(=O)c2cc3ccc(Cl)cc3s2)c1` [Example 293]: the EC50 was above 10000 nM.
The same measure, in the same setting: to `CS(=O)(=O)Nc1cc(Cl)cc(NC(=O)c2cc(-c3ncccc3Oc3cccnc3)cs2)c1` [Example 239] belongs 348 nM.
Still for that read-out and setting: the value for `COCc1sc(C(=O)Nc2cc(Cl)cc(NS(C)(=O)=O)c2)cc1-c1ccccn1` [Example 234] was 1180 nM; that for `CS(=O)(=O)Nc1cc(Cl)cc(NC(=O)c2cnn(-c3c(F)cccc3OCc3cccc(F)c3)c2)c1` [Example 211] was 189 nM.
Same read-out and setting: to `CC(C)(C)OC(=O)N1CCC(n2cc(C(=O)Nc3cc(Cl)cc(NS(C)(=O)=O)c3)cn2)CC1` [Example 136] belongs 6410 nM; to `Cc1cccnc1-c1csc(C(=O)Nc2cc(Br)cc(NS(C)(=N)=O)c2)c1` (centres unmarked) [Example 122], 1290 nM.
Take `CS(=O)(=O)Nc1cc(Cl)cc(NC(=O)c2cc3ccc(Cl)cn3c2)c1` [Example 299]: the concentration giving a half-maximal response (EC50) is above 10000 nM.
In the case of `CS(=O)(=O)Nc1cc(Cl)cc(NC(=O)c2cc3cccnn3c2)c1` [Example 292], the EC50 was determined as 2300 nM.
The same measure, in the same setting: to `CS(=O)(=O)Nc1cc(Cl)cc(NC(=O)c2cc3c(=O)[nH]ccn3c2)c1` [Example 301] belongs 2410 nM.
For the compound `CS(=O)(=O)Nc1cc(Br)cc(NC(=O)c2cnn(-c3ccccc3C=O)c2)c1` [Example 58], the 50% effective concentration (EC50) is 1410 nM.

The same test, now with this note: Homo sapiens, HCT-116, circBRIP1, HCT116 cells; ^+ SyBr assay was used; read-out: DHX9 Cellular Target Engagement EC50.
For the compound `CS(=O)(=O)Nc1cc(Cl)cc(NC(=O)c2cc(C(=O)N3CCN(CC(F)(F)F)CC3)n(-c3ccccn3)c2)c1` [Example 649], the concentration for a half-maximal effect (EC50) was determined as 9930 nM.
Same read-out and setting: the value for `CS(=O)(=O)Nc1cc(Cl)cc(NC(=O)c2cnn(-c3ncc(N4CC5(COC5)C4)cc3O)c2)c1` [Example 691] was 291 nM; that for `CN(C)C(=O)c1cccc(OCc2cccc(F)c2)c1-n1cc(C(=O)Nc2cc(Cl)cc(NS(C)(=O)=O)c2)cn1` [Example 717] was above 10000 nM; that for `Cc1cc(C(=O)Nc2cc(Cl)cc(NS(C)(=O)=O)c2)cn1-c1ncc(S(C)(=O)=O)cn1` [Example 656] was 239 nM.
Same read-out and setting: to `CN1CCN(c2csc(C(=O)Nc3cc(Cl)cc(NS(C)(=O)=O)c3)c2)C1=O` [Example 431] belongs 447 nM; to `Cc1cc(C(=O)Nc2cc(Cl)cc(NS(C)(=O)=O)c2)cn1-c1ncc(OC2COC2)cn1` [Example 669], 124 nM.
Take `Cc1cc(C(=O)Nc2cc(Cl)cc(NS(C)(=O)=O)c2)cn1-c1ccc(N(C)C2CCOC2)cn1` (centres unmarked) [Example 674]: the concentration giving a half-maximal response (EC50) came to 28.9 nM.
Same read-out and setting: to `Cn1cc(C(=O)Nc2cc(Cl)cc(NS(C)(=O)=O)c2)cc1-c1ccc(Cl)cn1` [Example 576] belongs 128 nM; to `Cc1sc(C(=O)Nc2cc(Cl)cc(NS(C)(=O)=O)c2)cc1-c1ncc(F)cc1-c1ccc(=O)n(C)c1` [Example 606], 1510 nM.

Still in this test, the particulars now being: Homo sapiens, HCT-116, read-out: DHX9 Cellular Target Engagement EC50.
For the compound `CS(=O)(=O)Nc1cc(F)cc(NC(=O)c2cc(Br)cs2)c1` [Example 71, 4-bromo-N-(3-fluoro-5-(methylsulfonamido)phenyl)thiophene-2-carboxamide], the EC50 amounted to 26300 nM.
